# ChEMBL document CHEMBL1201862, “PubChem BioAssay data set” (2004)
#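 Interpolation was linear, between the two tested concentrations surrounding the appropriate level; five concentrations were tested over 48 hours in 96-well plates. GI50 = concentration required for 50% inhibition of growth.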 Active and inactive are the calls of the source. Cut-off read from the data, not from the text of the source: active = GI50 up to about 1.1 µM and inactive = higher.
# Columns and labels:
# Experiment in all cases: inhibition of tumour cell growth, NCI panel, 48 h
# U-251 = tested on: U-251
# MCF7 = tested on: MCF7
# SF-295 = tested on: SF-295
# NCI-H23 = tested on: NCI-H23
# HOP-92 = tested on: HOP-92
# DU-145 = tested on: DU-145
# EKVX = tested on: EKVX
# NCI-H226 = tested on: NCI-H226
# A549 = tested on: A549
# UO-31 = tested on: UO-31
# 786-0 = tested on: 786-0
# RPMI-8226 = tested on: RPMI-8226
# HL-60 = tested on: HL-60
# SK-OV-3 = tested on: SK-OV-3
# IGROV-1 = tested on: IGROV-1
# NCI-H460 = tested on: NCI-H460
# HOP-62 = tested on: HOP-62
# SW-620 = tested on: SW-620
# SF-268 = tested on: SF-268
# SK-MEL-28 = tested on: SK-MEL-28
# K562 = tested on: K562
# KM12 = tested on: KM12
# A498 = tested on: A498
# RXF 393 = tested on: RXF 393
# TK-10 = tested on: TK-10
# UACC-62 = tested on: UACC-62
# CCRF-CEM = tested on: CCRF-CEM
# SK-MEL-5 = tested on: SK-MEL-5
# HCT-116 = tested on: HCT-116
# ACHN = tested on: ACHN
# SNB-19 = tested on: SNB-19
# NCI/ADR-RES = tested on: NCI/ADR-RES
# HT-29 = tested on: HT-29
# Hs-578T = tested on: Hs-578T
# MOLT-4 = tested on: MOLT-4
# COLO 205 = tested on: COLO 205
# Malme-3M = tested on: Malme-3M
# LOX IMVI = tested on: LOX IMVI
# BT-549 = tested on: BT-549
# HCT-15 = tested on: HCT-15
# MDA-MB-435 = tested on: MDA-MB-435
# MDA-MB-231 = tested on: MDA-MB-231
# SK-MEL-2 = tested on: SK-MEL-2
# OVCAR-3 = tested on: OVCAR-3
# OVCAR-8 = tested on: OVCAR-8
# SF-539 = tested on: SF-539
# PC-3 = tested on: PC-3
# OVCAR-5 = tested on: OVCAR-5
# SNB-75 = tested on: SNB-75
# M14 = tested on: M14
# T47D = tested on: T47D
# SR = tested on: SR
# CAKI-1 = tested on: CAKI-1
# HCC 2998 = tested on: HCC 2998
# OVCAR-4 = tested on: OVCAR-4
# UACC-257 = tested on: UACC-257
# SN12C = tested on: SN12C
# MDA-N = tested on: MDA-N
# NCI-H522 = tested on: NCI-H522
smiles,measurement,setting,value
NC1=CN2c3ccccc3N(CC(=O)O)C2C=C1 (configuration not stated),GI50,U-251,> 100 µM (inactive)
same,GI50,MCF7,> 100 µM (inactive)
same,GI50,SF-295,> 100 µM (inactive)
same,GI50,NCI-H23,> 100 µM (inactive)
same,GI50,HOP-92,> 100 µM (inactive)
same,GI50,DU-145,> 100 µM (inactive)
same,GI50,EKVX,> 100 µM (inactive)
same,GI50,NCI-H226,> 100 µM (inactive)
same,GI50,A549,> 100 µM (inactive)
same,GI50,UO-31,> 100 µM (inactive)
same,GI50,786-0,> 100 µM (inactive)
same,GI50,RPMI-8226,> 100 µM (inactive)
same,GI50,HL-60,> 100 µM (inactive)
same,GI50,SK-OV-3,> 100 µM (inactive)
same,GI50,IGROV-1,> 100 µM (inactive)
same,GI50,NCI-H460,> 100 µM (inactive)
same,GI50,HOP-62,> 100 µM (inactive)
same,GI50,SW-620,> 100 µM (inactive)
same,GI50,SF-268,> 100 µM (inactive)
same,GI50,SK-MEL-28,> 100 µM (inactive)
same,GI50,K562,> 100 µM (inactive)
same,GI50,KM12,> 100 µM (inactive)
same,GI50,A498,> 100 µM (inactive)
same,GI50,RXF 393,> 100 µM (inactive)
same,GI50,TK-10,> 100 µM (inactive)
same,GI50,UACC-62,> 100 µM (inactive)
same,GI50,CCRF-CEM,> 100 µM (inactive)
same,GI50,SK-MEL-5,> 100 µM (inactive)
same,GI50,HCT-116,> 100 µM (inactive)
same,GI50,ACHN,> 100 µM (inactive)
same,GI50,SNB-19,> 100 µM (inactive)
same,GI50,NCI/ADR-RES,> 100 µM (inactive)
same,GI50,HT-29,> 100 µM (inactive)
same,GI50,Hs-578T,> 100 µM (inactive)
same,GI50,MOLT-4,> 100 µM (inactive)
same,GI50,COLO 205,> 100 µM (inactive)
same,GI50,Malme-3M,> 100 µM (inactive)
same,GI50,LOX IMVI,> 100 µM (inactive)
same,GI50,BT-549,> 100 µM (inactive)
same,GI50,HCT-15,> 100 µM
same,GI50,MDA-MB-435,> 100 µM (inactive)
same,GI50,MDA-MB-231,> 100 µM (inactive)
same,GI50,SK-MEL-2,> 100 µM (inactive)
same,GI50,OVCAR-3,> 100 µM (inactive)
same,GI50,OVCAR-8,> 100 µM (inactive)
same,GI50,SF-539,> 100 µM (inactive)
same,GI50,PC-3,> 100 µM (inactive)
same,GI50,OVCAR-5,> 100 µM (inactive)
same,GI50,SNB-75,> 100 µM (inactive)
same,GI50,M14,> 100 µM (inactive)
same,GI50,T47D,> 100 µM (inactive)
same,GI50,SR,> 100 µM (inactive)
same,GI50,CAKI-1,> 100 µM (inactive)
same,GI50,HCC 2998,> 100 µM (inactive)
same,GI50,OVCAR-4,> 100 µM (inactive)
same,GI50,UACC-257,> 100 µM (inactive)
NC(=O)N/N=C\c1ccccc1OCc1cccc(COc2ccccc2/C=N\NC(N)=O)n1,GI50,U-251,5.56 µM (inactive)
same,GI50,MCF7,> 100 µM (inactive)
same,GI50,SF-295,17.1 µM (inactive)
same,GI50,NCI-H23,30.1 µM (inactive)
same,GI50,HOP-92,27.2 µM (inactive)
same,GI50,DU-145,18.8 µM (inactive)
same,GI50,EKVX,18 µM (inactive)
same,GI50,NCI-H226,73.6 µM (inactive)
same,GI50,A549,> 100 µM (inactive)
same,GI50,UO-31,29.9 µM (inactive)
same,GI50,786-0,20.5 µM (inactive)
same,GI50,SN12C,> 100 µM (inactive)
same,GI50,RPMI-8226,> 100 µM (inactive)
same,GI50,HL-60,> 100 µM (inactive)
same,GI50,SK-OV-3,19 µM (inactive)
same,GI50,MDA-N,> 100 µM (inactive)
same,GI50,IGROV-1,37.4 µM (inactive)
same,GI50,NCI-H460,> 100 µM (inactive)
same,GI50,HOP-62,12.4 µM (inactive)
same,GI50,SW-620,> 100 µM (inactive)
same,GI50,SF-268,21 µM (inactive)
same,GI50,SK-MEL-28,> 100 µM (inactive)
same,GI50,K562,> 100 µM (inactive)
same,GI50,KM12,> 100 µM (inactive)
same,GI50,A498,98.6 µM (inactive)
same,GI50,RXF 393,12.9 µM (inactive)
same,GI50,TK-10,30.7 µM (inactive)
same,GI50,UACC-62,19.1 µM (inactive)
same,GI50,CCRF-CEM,> 100 µM (inactive)
same,GI50,SK-MEL-5,> 100 µM (inactive)
same,GI50,HCT-116,33.9 µM (inactive)
same,GI50,ACHN,26.2 µM (inactive)
same,GI50,SNB-19,30.8 µM (inactive)
same,GI50,NCI/ADR-RES,57.4 µM (inactive)
same,GI50,HT-29,> 100 µM (inactive)
same,GI50,Hs-578T,13.2 µM (inactive)
same,GI50,MOLT-4,> 100 µM (inactive)
same,GI50,COLO 205,> 100 µM (inactive)
same,GI50,Malme-3M,72.9 µM (inactive)
same,GI50,LOX IMVI,46.1 µM (inactive)
same,GI50,BT-549,26.9 µM (inactive)
same,GI50,HCT-15,64.1 µM
same,GI50,MDA-MB-435,> 100 µM (inactive)
same,GI50,MDA-MB-231,14.6 µM (inactive)
same,GI50,SK-MEL-2,28.8 µM (inactive)
same,GI50,OVCAR-3,> 100 µM (inactive)
same,GI50,OVCAR-8,63.1 µM (inactive)
same,GI50,SF-539,19.3 µM (inactive)
same,GI50,PC-3,86.9 µM (inactive)
same,GI50,OVCAR-5,41.2 µM (inactive)
same,GI50,M14,49.2 µM (inactive)
same,GI50,CAKI-1,> 100 µM (inactive)
same,GI50,HCC 2998,21.3 µM (inactive)
same,GI50,OVCAR-4,> 100 µM (inactive)
same,GI50,NCI-H522,64.4 µM (inactive)
same,GI50,UACC-257,> 100 µM (inactive)
O=c1[nH]c2ccc(CC(=S)N3CCCCC3)cc2s1,GI50,MCF7,> 100 µM (inactive)
same,GI50,SF-295,> 100 µM (inactive)
same,GI50,NCI-H23,> 100 µM (inactive)
same,GI50,DU-145,> 100 µM (inactive)
same,GI50,EKVX,0.214 µM (active)
same,GI50,786-0,> 100 µM (inactive)
same,GI50,SK-OV-3,> 100 µM (inactive)
same,GI50,MDA-N,> 100 µM (inactive)
same,GI50,HOP-62,71.9 µM (inactive)
same,GI50,SW-620,> 100 µM (inactive)
same,GI50,SK-MEL-28,> 100 µM (inactive)
same,GI50,K562,> 100 µM (inactive)
same,GI50,KM12,> 100 µM (inactive)
same,GI50,TK-10,> 100 µM (inactive)
same,GI50,UACC-62,> 100 µM (inactive)
same,GI50,HCT-116,> 100 µM (inactive)
same,GI50,ACHN,> 100 µM (inactive)
same,GI50,SNB-19,> 100 µM (inactive)
same,GI50,MOLT-4,> 100 µM (inactive)
same,GI50,COLO 205,> 100 µM (inactive)
same,GI50,LOX IMVI,> 100 µM (inactive)
same,GI50,BT-549,> 100 µM (inactive)
same,GI50,HCT-15,> 100 µM
same,GI50,MDA-MB-435,> 100 µM (inactive)
same,GI50,MDA-MB-231,> 100 µM (inactive)
same,GI50,SK-MEL-2,> 100 µM (inactive)
same,GI50,OVCAR-3,> 100 µM (inactive)
same,GI50,OVCAR-8,> 100 µM (inactive)
same,GI50,PC-3,> 100 µM (inactive)
same,GI50,OVCAR-5,> 100 µM (inactive)
same,GI50,SNB-75,0.163 µM (active)
same,GI50,M14,> 100 µM (inactive)
same,GI50,SR,26.4 µM (inactive)
same,GI50,CAKI-1,91.6 µM (inactive)
same,GI50,UACC-257,> 100 µM (inactive)
